Measured values published in PMC5826112, “Intrapulmonary Pharmacokinetics of Relebactam, a Novel β-Lactamase Inhibitor, Dosed in Combination with Imipenem-Cilastatin in Healthy Subjects” (Antimicrobial Agents and Chemotherapy, 2018).
“Also recorded” adds a separate entry of the source. Where two headings read alike, the source gives them in different places. Each block holds one compound with its values, some of them ahead of it.

Legend:
[1] = design: method as in PMID 26349830; settings: healthy adults, meropenem-RPX7009; cited from earlier work
[2] = design: method as in PMID 21300830; settings: patients with ventilator-associated pneumonia; cited from earlier work
[3] = design: method as in PMID 7831630; settings: orally administered amoxicillin-clavulanate; cited from earlier work
[4] = design: method as in PMID 17039351; settings: multiple-dose, adult patients with ventilator-associated pneumonia; cited from earlier work
[5] = no reference given; cited from earlier work
[6] = Intrapulmonary (ELF, AC) and plasma pharmacokinetics after multiple-dose IV relebactam with imipenem-cilastatin, bronchoscopy/BAL, noncompartmental analysis; format: in vivo, human (healthy subjects); settings: for t1/2 (terminal half-life) / half-life / AUC(0-inf) / Cmax / Tmax / AUC(0-t): mean profile; for half-life: read-out: t1/2 (terminal half-life) (converted); for AUC(0-inf): noncompartmental analysis; for AUC(0-t): read-out: AUC0–3; for concentrations in AC (alveolar cells): result in words
Description: Dosing and administration of imipenem-cilastatin were carried out in a manner consistent with the recommended labeled posology. BAL fluid specimens were obtained during bronchoscopy for the determination of the relebactam and imipenem concentrations in the ELF and AC. Four aliquots of normal saline (50 ml each) were sequentially instilled and aspirated after each instillation. The first aspirate was discarded, and the remaining aspirates were pooled and used to obtain urea and drug level measurements. Aliquots were obtained for cell count/differential, and the remainder of the pooled aspirates was centrifuged. The liquid aspirate and cell pellet were separated and stored at −70°C. The supernatant was sent for urea and drug level measurements. Blood samples were collected prior to the first and fifth doses of study drug for the determination of relebactam and imipenem plasma concentrations. Blood samples were also collected during the bronchoscopy/BAL procedure for the determination of relebactam, imipenem, and urea concentrations. Relebactam and imipenem levels in plasma, pulmonary ELF, and AC were measured simultaneously via acetonitrile protein precipitation and hydrophilic interaction liquid chromatography (HILIC) with detection via liquid chromatography-tandem mass spectrometry (LC-MS/MS). The system consisted of a Waters Acquity ultraperformance liquid chromatograph (Waters Corp., Milford, MA) and an API 4000 or 5000 triple-quadrupole tandem mass spectrometer (Sciex, Framingham, MA) equipped with a turbo-ion spray interface and operated in the positive ionization mode. The multiple reaction monitoring (MRM) transitions monitored were m/z 349 → 269 for relebactam, m/z 300 → 98 for imipenem, and m/z 354 → 274 and m/z 307 → 98 for their respective internal standards. […] The ELF volumes recovered by BAL were determined by using urea as an endogenous marker to provide a dilution ratio by measurement of urea concentrations in the BAL fluid and serum ([33]). […] The mean value for each time point was used to conduct the noncompartmental analysis using Phoenix (version 6.3) software (Pharsight Corporation, Mountain View, CA) and to calculate the values of the PK parameters on the basis of the mean profile in each matrix.

[7] = healthy adults, ceftolozane-tazobactam; cited from earlier work
[8] = critically ill patients, multiple doses of piperacillin-tazobactam; cited from earlier work
[9] = both sexes, human, intravenous, ELF, same regimen
[10] = both sexes, human, intravenous, plasma, same regimen

SMILES: O=C(O)C[C@@H]1CC[C@H](NC(=O)Cc2cccs2)B(O)O1 [RPX7009]
mean penetration ratio based on AUC [1]: 53%

SMILES: C[C@@H](O)[C@H]1C(=O)N2C(C(=O)O)=C(S[C@@H]3CN[C@H](C(=O)N(C)C)C3)[C@H](C)[C@H]12 [meropenem]
mean penetration ratio based on AUC [1]: 63%
ELF/plasma concentration ratio estimated by population modeling [2]: 30%

SMILES: O=C(O)[C@H]1/C(=C/CO)O[C@@H]2CC(=O)N21 [clavulanate]
concentrations in ELF relative to those in plasma [3]: less than 20%

SMILES: C[C@@H](O)[C@H]1C(=O)N2C(C(=O)O)=C(S[C@@H]3CN[C@H](C(=O)Nc4cccc(C(=O)O)c4)C3)[C@H](C)[C@H]12 [ertapenem]
ratios of ELF concentrations to total plasma concentrations, median [4]: 0.32

t1/2 (terminal half-life) ([6]; ELF, same regimen): 61.8 min
half-life ([6]; both sexes, human, ELF, intravenous, ELF, same regimen): 60 min
concentration at 0.5 h ([6]; both sexes, human, ELF, intravenous, same regimen, 0.5 h after last dose, n=4, read-out: concn in ELF, GM): 32.1 µM
concentration at 1 h ([6]; both sexes, human, ELF, intravenous, same regimen, 1 h after last dose, n=4, read-out: concn in ELF, GM): 20.3 µM
concentration at 1.5 h ([6]; both sexes, human, ELF, intravenous, same regimen, 1.5 h after last dose, n=4, read-out: concn in ELF, GM): 16.5 µM
concentration at 3 h ([6]; both sexes, human, ELF, intravenous, same regimen, 3 h after last dose, n=4, read-out: concn in ELF, GM): 5.99 µM
Kp ([6]; both sexes, human, ELF/plasma, intravenous, calculated as 100 · ELF AUC0–∞/plasma AUC0–∞/0.8, adjusted for protein binding (80% unbound in plasma, 100% free in ELF), read-out: Adjusted ELF/plasma AUC0–∞ ratio): 0.55
Kp ([6]; both sexes, human, ELF/plasma, intravenous, calculated as 100 · ELF AUC0–∞/plasma AUC0–∞, mean profiles, read-out: ELF/plasma AUC0–∞ ratio): 0.442
Kp ([6]; both sexes, human, ELF/plasma, intravenous, same regimen, 0.5 to 3 h after last dose, read-out: GMRs for ELF/plasma concentrations, range across time points): 0.32 to 0.55
Kp at 1 h ([6]; both sexes, human, ELF/plasma, intravenous, same regimen, 1.0 h after last dose, n=4, read-out: ELF/plasma concn GMR (90% CI)): 0.36
Kp at 1.5 h ([6]; both sexes, human, ELF/plasma, intravenous, same regimen, 1.5 h after last dose, n=4, read-out: ELF/plasma concn GMR (90% CI)): 0.55
Kp at 3 h ([6]; both sexes, human, ELF/plasma, intravenous, same regimen, 3.0 h after last dose, n=4, read-out: ELF/plasma concn GMR (90% CI)): 0.5
Kp at 0.5 h ([6]; both sexes, human, ELF/plasma, iv, healthy subjects, relebactam 250 mg with imipenem-cilastatin 500 mg IV every 6 h, 5 doses, 0.5 h after last dose, n=4, read-out: ELF/plasma concn GMR (90% CI)): 0.32
AUC(0-inf) [6, 9]: 57.4 µM·h
Cmax [6, 9]: 32.6 µM
Tmax [6, 9]: 30 min
AUC(0-t) [6, 9]: 48.4 µM·h
AUC(0-inf) [6, 10]: 130 µM·h
Cmax [6, 10]: 99.6 µM
Tmax [6, 10]: 30 min
AUC(0-t) [6, 10]: 114 µM·h
half-life ([6]; both sexes, human, plasma, intravenous, plasma, same regimen): 60 min
Adjusted ELF/plasma AUC0–∞ ratio ([6]; calculated as 100 · ELF AUC0–∞/plasma AUC0–∞/0.8, adjusted for protein binding (80% unbound in plasma, 100% free in ELF)): 55.2%
t1/2 (terminal half-life) ([6]; plasma, same regimen): 57 min
concentrations in AC (alveolar cells) ([6]; same regimen): below the limit of quantitation
SMILES: C[C@@H](O)[C@H]1C(=O)N2C(C(=O)O)=C(SCCN=CN)C[C@H]12 [imipenem]
unbound in plasma (free fraction) [5]: 80%
concentrations in AC (alveolar cells) ([6]; same regimen, listed as Imipenem): undetectable in the majority of patients; also recorded: not detected

SMILES: CC1(C)S[C@@H]2[C@H](NC(=O)[C@H](N)c3ccc(O)cc3)C(=O)N2[C@H]1C(=O)O [amoxicillin]
concentrations in ELF relative to those in plasma [3]: less than 20%

SMILES: Cn1c(N)c(NC(=O)NCCN)c[n+]1CC1=C(C(=O)O)N2C(=O)[C@@H](NC(=O)/C(=N\OC(C)(C)C(=O)[O-])c3nsc(N)n3)[C@H]2SC1 [ceftolozane]
ELF/plasma AUC ratio [7]: 48%

SMILES: C[C@]1(Cn2ccnn2)[C@H](C(=O)O)N2C(=O)C[C@H]2S1(=O)=O [tazobactam]
mean concentrations in ELF relative to total concentrations in plasma [8]: ~91%
ELF/plasma AUC ratio [7]: 44%
